# Patent publication US20200247855A1, “THERAPY AND DIAGNOSTICS” (OXFORD UNIVERSITY INNOVATION LIMITED, priority 2017, published 2020)
# Residues, ends and D or L forms follow the SMILES beside them. *: point of attachment. FITC = O=C1OC2(c3ccc(O)cc3Oc3cc(O)ccc32)c2ccc(NC(=S)*)cc21
# Biological target: T1, CCL8 (Homo sapiens, UniProt P80075)
# T1 construct: SUMO (in-house protein only) (cleaved yes); made in house; host or cells: Escherichia coli RosettaGami 2 (DE3)
# T1 sequence (P80075 24-99): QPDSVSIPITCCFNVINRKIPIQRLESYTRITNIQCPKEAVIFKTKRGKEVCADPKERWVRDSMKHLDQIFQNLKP
# Experiment: Fluorescence polarisation (anisotropy) assay
# Assay type: binding
# Conditions: BK1.1FITC Ala mutants, CCL8
# From the text: FIG. 14. Characterisation of P672_PEP-FITC by fluorescence polarisation. […] Residue C30 was mutated to A to avoid an unpaired cysteine residue. The residues corresponding to the above peptide are wholly contained within the CCL8-binding region of P672_RHIPU transferred in the hybrid evasin P672:EVA1 (SEQ ID 76, see FIG. 5). […] (SEQ ID NO: 90). FIG. 14(A). […] The curve was fitted to the two site-total and non-specific binding model in GraphPad Prism 6. Data are shown as mean and SEM of three independent experiments, with each independent experiment performed as three technical replicates. The affinity constant Kd was calculated in GraphPad Prism from the curve fit with the standard error reported.
# FIG. 14(B). […] The measured fluorescence anisotropy (y-axis) of P672_PEP-FITC (50 nM) following binding to a fixed dose (1 μM)) of CCL7, CCL8, CCL18 and CXCL1 (negative control). […] Statistical significance was determined using one-way ANOVA with Sidak's correction for multiple comparisons using Graph Pad Prism 6. **=p<0.005, ****=P<0.00005, ns=not significant.
# FIG. 15(C). […] In each case 100 μM (++) or […] (+) of P672_PEP was incubated with P672_PEP-FITC (50 nM)/chemokine (1 μM CCL7 and CCL18; 500 nM CCL8) and the resulting anisotropy measured. […] Experiment carried out in triplicate where each data point is the average of one experiment carried out in technical triplicate. Mean with SEM shown and statistical significance was determined using one-way ANOVA with Sidak's correction for multiple comparisons using Graph Pad Prism 6. *=p<0.05, ***=p<0.0005, ****=P<0.00005, ns=not significant.
# Fluorescence polarization assays were performed using a Clariostar (BMG Tech) plate reader with the supplied FITC excitation and emission filters using 96 half area well plates (Corning). The buffer used (FP assay buffer) was 50 mM HEPES, 150 mM NaCl, 0.1% BSA, 0.002% TWEEN-20, 0.2% DMSO, pH 7.4 and the final volume in each well was 30 μL. Polarization was converted to anisotropy using the equation A=(2*P)/(3−P) where P is polarization and A is anisotropy. For each peptide tested the gain was set to 35 mP and adjusted to a well containing fluorescent peptide only. The polarization of the emitted light in the FITC emission channel was then determined. Experiments were performed as two technical and three biological replicates. Screening of P672 peptide fragments was achieved through incubation of each peptide (50 nM) with 1 μM CCL8 (Peprotech) for 30 minutes in FP assay buffer and the resulting anisotropy of the emitted light determined as above. The chemokine cross binding screen was performed by incubating 1 μM chemokine (Peprotech) with 50 nM BK1.1FITC for half an hour in FP assay buffer and the resulting anisotropy of the emitted light determined as above. […] The anisotropy was plotted as a function of CCL8 concentration and fitted to the equation: Y=Bmax*X/(KD+X)+NS*X+Background, where Y is the measured anisotropy, X is the concentration of CCL8 added, Bmax is the maximum binding, KD is the equilibrium dissociation constant, NS is the slope of the nonlinear regression and Background is the anisotropy when no CCL8 is present, in Graph Pad Prism. Displacement assays were carried out with CCL7, CCL8, and CCL18 (Peprotech, 1 μM). […] For all FP assays, the experiments were carried out as two technical and three biological replicates.
row,SMILES,Fold change (Kd versus WT)
1,CC(C)[C@H](NC(=O)[C@@H]1CCCN1C(=O)[C@H](CCCCN)NC(=O)[C@H](C)NC(=O)[C@H](Cc1ccccc1)NC(=O)[C@H](CC(=O)O)NC(=O)[C@H](CCC(=O)O)NC(=O)[C@H](Cc1ccc(O)cc1)NC(=O)[C@H](CC(=O)O)NC(=O)[C@H](CCC(=O)O)NC(=O)[C@H](CC(=O)O)NC(=O)[C@H](CCC(=O)O)NC(=S)Nc1ccc2c(c1)C(=O)OC21c2ccc(O)cc2Oc2cc(O)ccc21)C(=O)N[C@H](C(=O)N[C@@H](C)C(=O)N[C@@H](Cc1ccc(O)cc1)C(=O)N[C@@H](Cc1ccccc1)C(N)=O)[C@@H](C)O [F25A] ({FITC}-EDEDYEDFAKPVTAYF-NH2),4.6
2,CC(C)[C@H](NC(=O)[C@@H]1CCCN1C(=O)[C@H](CCCCN)NC(=O)[C@H](Cc1ccccc1)NC(=O)[C@H](Cc1ccccc1)NC(=O)[C@H](C)NC(=O)[C@H](CCC(=O)O)NC(=O)[C@H](Cc1ccc(O)cc1)NC(=O)[C@H](CC(=O)O)NC(=O)[C@H](CCC(=O)O)NC(=O)[C@H](CC(=O)O)NC(=O)[C@H](CCC(=O)O)NC(=S)Nc1ccc2c(c1)C(=O)OC21c2ccc(O)cc2Oc2cc(O)ccc21)C(=O)N[C@H](C(=O)N[C@@H](C)C(=O)N[C@@H](Cc1ccc(O)cc1)C(=O)N[C@@H](Cc1ccccc1)C(N)=O)[C@@H](C)O [D23A] ({FITC}-EDEDYEAFFKPVTAYF-NH2),1.5
3,CC(C)[C@H](NC(=O)[C@@H]1CCCN1C(=O)[C@H](CCCCN)NC(=O)[C@H](Cc1ccccc1)NC(=O)[C@H](Cc1ccccc1)NC(=O)[C@H](CC(=O)O)NC(=O)[C@H](C)NC(=O)[C@H](Cc1ccc(O)cc1)NC(=O)[C@H](CC(=O)O)NC(=O)[C@H](CCC(=O)O)NC(=O)[C@H](CC(=O)O)NC(=O)[C@H](CCC(=O)O)NC(=S)Nc1ccc2c(c1)C(=O)OC21c2ccc(O)cc2Oc2cc(O)ccc21)C(=O)N[C@H](C(=O)N[C@@H](C)C(=O)N[C@@H](Cc1ccc(O)cc1)C(=O)N[C@@H](Cc1ccccc1)C(N)=O)[C@@H](C)O [E22A] ({FITC}-EDEDYADFFKPVTAYF-NH2),4.0
4,CC(C)[C@H](NC(=O)[C@@H]1CCCN1C(=O)[C@H](CCCCN)NC(=O)[C@H](Cc1ccccc1)NC(=O)[C@H](Cc1ccccc1)NC(=O)[C@H](CC(=O)O)NC(=O)[C@H](CCC(=O)O)NC(=O)[C@H](C)NC(=O)[C@H](CC(=O)O)NC(=O)[C@H](CCC(=O)O)NC(=O)[C@H](CC(=O)O)NC(=O)[C@H](CCC(=O)O)NC(=S)Nc1ccc2c(c1)C(=O)OC21c2ccc(O)cc2Oc2cc(O)ccc21)C(=O)N[C@H](C(=O)N[C@@H](C)C(=O)N[C@@H](Cc1ccc(O)cc1)C(=O)N[C@@H](Cc1ccccc1)C(N)=O)[C@@H](C)O [Y21A] ({FITC}-EDEDAEDFFKPVTAYF-NH2),4.7
5,CC(C)[C@H](NC(=O)[C@@H]1CCCN1C(=O)[C@H](C)NC(=O)[C@H](Cc1ccccc1)NC(=O)[C@H](Cc1ccccc1)NC(=O)[C@H](CC(=O)O)NC(=O)[C@H](CCC(=O)O)NC(=O)[C@H](Cc1ccc(O)cc1)NC(=O)[C@H](CC(=O)O)NC(=O)[C@H](CCC(=O)O)NC(=O)[C@H](CC(=O)O)NC(=O)[C@H](CCC(=O)O)NC(=S)Nc1ccc2c(c1)C(=O)OC21c2ccc(O)cc2Oc2cc(O)ccc21)C(=O)N[C@H](C(=O)N[C@@H](C)C(=O)N[C@@H](Cc1ccc(O)cc1)C(=O)N[C@@H](Cc1ccccc1)C(N)=O)[C@@H](C)O [K26A] ({FITC}-EDEDYEDFFAPVTAYF-NH2),0.8
6,CC(C)[C@H](NC(=O)[C@@H]1CCCN1C(=O)[C@H](CCCCN)NC(=O)[C@H](Cc1ccccc1)NC(=O)[C@H](Cc1ccccc1)NC(=O)[C@H](CC(=O)O)NC(=O)[C@H](CCC(=O)O)NC(=O)[C@H](Cc1ccc(O)cc1)NC(=O)[C@H](CC(=O)O)NC(=O)[C@H](CCC(=O)O)NC(=O)[C@H](CC(=O)O)NC(=O)[C@H](C)NC(=S)Nc1ccc2c(c1)C(=O)OC21c2ccc(O)cc2Oc2cc(O)ccc21)C(=O)N[C@H](C(=O)N[C@@H](C)C(=O)N[C@@H](Cc1ccc(O)cc1)C(=O)N[C@@H](Cc1ccccc1)C(N)=O)[C@@H](C)O [E17A] ({FITC}-ADEDYEDFFKPVTAYF-NH2),1.2
7,CC(C)[C@H](NC(=O)[C@@H]1CCCN1C(=O)[C@H](CCCCN)NC(=O)[C@H](Cc1ccccc1)NC(=O)[C@H](Cc1ccccc1)NC(=O)[C@H](CC(=O)O)NC(=O)[C@H](CCC(=O)O)NC(=O)[C@H](Cc1ccc(O)cc1)NC(=O)[C@H](CC(=O)O)NC(=O)[C@H](CCC(=O)O)NC(=O)[C@H](CC(=O)O)NC(=O)[C@H](CCC(=O)O)NC(=S)Nc1ccc2c(c1)C(=O)OC21c2ccc(O)cc2Oc2cc(O)ccc21)C(=O)N[C@@H](C)C(=O)N[C@@H](C)C(=O)N[C@@H](Cc1ccc(O)cc1)C(=O)N[C@@H](Cc1ccccc1)C(N)=O [T29A] ({FITC}-EDEDYEDFFKPVAAYF-NH2),2.0
8,CC(C)[C@H](NC(=O)[C@@H]1CCCN1C(=O)[C@H](CCCCN)NC(=O)[C@H](Cc1ccccc1)NC(=O)[C@H](Cc1ccccc1)NC(=O)[C@H](CC(=O)O)NC(=O)[C@H](CCC(=O)O)NC(=O)[C@H](Cc1ccc(O)cc1)NC(=O)[C@H](CC(=O)O)NC(=O)[C@H](CCC(=O)O)NC(=O)[C@H](CC(=O)O)NC(=O)[C@H](CCC(=O)O)NC(=S)Nc1ccc2c(c1)C(=O)OC21c2ccc(O)cc2Oc2cc(O)ccc21)C(=O)N[C@H](C(=O)N[C@@H](C)C(=O)N[C@@H](C)C(=O)N[C@@H](Cc1ccccc1)C(N)=O)[C@@H](C)O [Y31A] ({FITC}-EDEDYEDFFKPVTAAF-NH2),3.8
9,CC(C)[C@H](NC(=O)[C@@H]1CCCN1C(=O)[C@H](CCCCN)NC(=O)[C@H](Cc1ccccc1)NC(=O)[C@H](Cc1ccccc1)NC(=O)[C@H](CC(=O)O)NC(=O)[C@H](CCC(=O)O)NC(=O)[C@H](Cc1ccc(O)cc1)NC(=O)[C@H](CC(=O)O)NC(=O)[C@H](C)NC(=O)[C@H](CC(=O)O)NC(=O)[C@H](CCC(=O)O)NC(=S)Nc1ccc2c(c1)C(=O)OC21c2ccc(O)cc2Oc2cc(O)ccc21)C(=O)N[C@H](C(=O)N[C@@H](C)C(=O)N[C@@H](Cc1ccc(O)cc1)C(=O)N[C@@H](Cc1ccccc1)C(N)=O)[C@@H](C)O [E19A] ({FITC}-EDADYEDFFKPVTAYF-NH2),2.1
10,CC(C)[C@H](NC(=O)[C@@H]1CCCN1C(=O)[C@H](CCCCN)NC(=O)[C@H](Cc1ccccc1)NC(=O)[C@H](Cc1ccccc1)NC(=O)[C@H](CC(=O)O)NC(=O)[C@H](CCC(=O)O)NC(=O)[C@H](Cc1ccc(O)cc1)NC(=O)[C@H](CC(=O)O)NC(=O)[C@H](CCC(=O)O)NC(=O)[C@H](C)NC(=O)[C@H](CCC(=O)O)NC(=S)Nc1ccc2c(c1)C(=O)OC21c2ccc(O)cc2Oc2cc(O)ccc21)C(=O)N[C@H](C(=O)N[C@@H](C)C(=O)N[C@@H](Cc1ccc(O)cc1)C(=O)N[C@@H](Cc1ccccc1)C(N)=O)[C@@H](C)O [D18A] ({FITC}-EAEDYEDFFKPVTAYF-NH2),2.5
11,CC(C)[C@H](NC(=O)[C@@H]1CCCN1C(=O)[C@H](CCCCN)NC(=O)[C@H](Cc1ccccc1)NC(=O)[C@H](Cc1ccccc1)NC(=O)[C@H](CC(=O)O)NC(=O)[C@H](CCC(=O)O)NC(=O)[C@H](Cc1ccc(O)cc1)NC(=O)[C@H](C)NC(=O)[C@H](CCC(=O)O)NC(=O)[C@H](CC(=O)O)NC(=O)[C@H](CCC(=O)O)NC(=S)Nc1ccc2c(c1)C(=O)OC21c2ccc(O)cc2Oc2cc(O)ccc21)C(=O)N[C@H](C(=O)N[C@@H](C)C(=O)N[C@@H](Cc1ccc(O)cc1)C(=O)N[C@@H](Cc1ccccc1)C(N)=O)[C@@H](C)O [D20A] ({FITC}-EDEAYEDFFKPVTAYF-NH2),1.5
